Results from patent US8044198B2, “Sirtuin modulating compounds” (Sirtris Pharmaceuticals, Inc., priority 2005, dated 2011).
Where two headings read alike, the source gives them in different places.

Target: T1, SIRT1 (Homo sapiens, UniProt Q96EB6)
T1 sequence (Q96EB6 1-747): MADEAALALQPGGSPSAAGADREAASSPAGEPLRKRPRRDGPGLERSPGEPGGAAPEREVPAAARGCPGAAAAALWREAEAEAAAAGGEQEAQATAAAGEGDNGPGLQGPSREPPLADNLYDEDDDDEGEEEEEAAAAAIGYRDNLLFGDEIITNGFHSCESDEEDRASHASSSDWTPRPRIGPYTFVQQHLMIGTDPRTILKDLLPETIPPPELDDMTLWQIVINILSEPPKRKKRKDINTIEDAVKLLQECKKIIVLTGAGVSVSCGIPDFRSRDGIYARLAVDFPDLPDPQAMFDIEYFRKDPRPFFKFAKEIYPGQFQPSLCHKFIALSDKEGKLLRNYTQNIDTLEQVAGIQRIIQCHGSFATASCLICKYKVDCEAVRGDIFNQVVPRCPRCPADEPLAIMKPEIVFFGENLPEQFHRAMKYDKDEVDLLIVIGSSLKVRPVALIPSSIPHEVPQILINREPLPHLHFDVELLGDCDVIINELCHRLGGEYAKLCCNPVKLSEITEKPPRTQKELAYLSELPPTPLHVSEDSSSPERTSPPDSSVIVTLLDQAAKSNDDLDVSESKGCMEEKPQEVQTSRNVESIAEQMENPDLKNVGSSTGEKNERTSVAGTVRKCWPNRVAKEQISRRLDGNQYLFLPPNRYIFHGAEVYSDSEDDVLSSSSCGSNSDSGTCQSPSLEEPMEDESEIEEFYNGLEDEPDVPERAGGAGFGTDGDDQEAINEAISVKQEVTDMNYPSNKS
Test: SIRT1 mass spectrometry (MS) based deacetylation assay; as to FOLD ACT. MS: test concentration or dose not given here
Format: biochemical
Details: for EC50: mass spectrometry assay, read-out: ED50 MS ASSAY

[1] = fold activation of SIRT1, mass spectrometry assay
[2] = Sirt1 activators, fold activation as determined by MS

SMILES | EC50 (SIRT1 activation) [µM] | FOLD ACT. MS [1] | FOLD ACT. MS [2] | EC50 (Sirt1 activators) [µM]
CN(C)c1ccc(C(=O)Nc2cccc(-c3nc4ccncc4o3)c2)cc1 [Compound 431] | 5 to 50 | B (B (Fold Activation <250%)) |  | 
COc1cc(C(=O)Nc2ccccc2-c2nc3ccncc3s2)ccc1CN1CCCC1 [Compound 436] | 5 to 50 | A (A (Fold activation >250%)) |  | 
COc1ccc(C(=O)Nc2ccccc2-c2cn3cccnc3n2)c(OC)c1 [Compound 437] | 5 to 50 | B (B (Fold Activation <250%)) |  | 
O=C(Nc1ccccc1-c1cn2c(CN3CCNCC3)csc2n1)c1ccc2ccccc2n1 [Compound 440] | < 5 | A (A (Fold activation >250%)) |  | 
O=C(Nc1ccccc1-c1cn2c(CN3CCNCC3)csc2n1)c1cnc2ccccc2n1 [Compound 441] | < 5 | A (A (Fold activation >250%)) |  | 
Cc1c(C(=O)Nc2ccccc2-c2cn3c(CN4CCNCC4)csc3n2)oc2ccccc12 [Compound 442] | < 5 | A (A (Fold activation >250%)) |  | 
Cc1cc(C(=O)Nc2ccccc2-c2cn3c(CN4CCNCC4)csc3n2)c(C)o1 [Compound 443] | 5 to 50 | A (A (Fold activation >250%)) |  | 
CSc1ccc(C(=O)Nc2ccccc2-c2cn3c(CN4CCNCC4)csc3n2)cc1 [Compound 444] | 5 to 50 | A (A (Fold activation >250%)) |  | 
O=C(Cc1ccccc1)Nc1ccccc1-c1cn2c(CN3CCNCC3)csc2n1 [Compound 445] | 5 to 50 | B (B (Fold Activation <250%)) |  | 
O=C(Nc1ccccc1-c1cn2c(CN3CCNCC3)csc2n1)c1cccs1 [Compound 446] | 5 to 50 | B (B (Fold Activation <250%)) |  | 
COc1cc(OC)cc(C(=O)Nc2cccc(-c3nc4ccncc4o3)c2)c1 [Compound 451] | 5 to 50 | B (B (Fold Activation <250%)) |  | 
COc1ccc(C(=O)Nc2cccc(-c3nc4ccncc4o3)c2)c(OC)c1OC [Compound 452] | 5 to 50 | B (B (Fold Activation <250%)) |  | 
CN(C)c1cccc(C(=O)Nc2cccc(-c3nc4ccncc4o3)c2)c1 [Compound 453] | 5 to 50 | B (B (Fold Activation <250%)) |  | 
COc1ccc(C(=O)Nc2cccc(-c3nc4ccncc4o3)c2)cc1OC [Compound 454] | 5 to 50 | B (B (Fold Activation <250%)) |  | 
CN(C)c1cccc(C(=O)Nc2ccccc2-c2nc3ccncc3o2)c1 [Compound 458] | < 5 | B (B (Fold Activation <250%)) |  | 
CN(C)c1ccc(C(=O)Nc2ccccc2-c2nc3ccncc3o2)cc1 [Compound 459] |  |  | B (B (Fold Activation <250%)) | < 5
O=C(CCc1ccccc1)Nc1ccccc1-c1nc2ccncc2s1 [Compound 460] |  |  |  | 5 to 50
Cc1cc(C(=O)Nc2ccccc2-c2nc3ccncc3s2)n(C(C)(C)C)n1 [Compound 462] |  |  |  | < 5
CC(Oc1ccccc1)C(=O)Nc1ccccc1-c1nc2ccncc2s1 (stereo not shown) [Compound 463] |  |  |  | 5 to 50

SMILES | EC50 (SIRT1 activation) [µM] | FOLD ACT. MS [1] | FOLD ACT. MS [2] | EC50 (Sirt1 activators) [µM]
Cc1cc(C)cc(C(=O)Nc2cc(-c3nc4ncccc4o3)ccn2)c1 [Compound 468] |  |  | B (B (Fold Activation <250%)) | 5 to 50
COC(=O)c1cccc(NC(=S)Nc2cccc(-c3nc4ccncc4s3)c2)c1 [Compound 473] |  |  |  | < 5
S=C(Nc1ccc(-n2cccn2)cc1)Nc1cccc(-c2nc3ccncc3s2)c1 [Compound 481] |  |  |  | 5 to 50
Cc1cc(C)cc(C(=O)Nc2ccccc2-c2nc3ncccc3o2)c1 [Compound 482] |  |  | B (B (Fold Activation <250%)) | < 5
S=C(Nc1ccc(N2CCOCC2)nc1)Nc1cccc(-c2nc3ccncc3s2)c1 [Compound 484] |  |  | B (B (Fold Activation <250%)) | 5 to 50
S=C(Nc1cccnc1)Nc1cccc(-c2nc3ccncc3s2)c1 [Compound 485] |  |  |  | 5 to 50
COc1ccc(CNC(=S)Nc2cccc(-c3nc4ccncc4s3)c2)cc1 [Compound 498] |  |  |  | 5 to 50
COc1cc(C(=O)Nc2ccccc2-c2nc3ccccc3[nH]2)ccc1CN1CCOCC1 [Compound 503] |  |  | A (A (Fold activation >250%)) | < 5
CN(C)c1cccc(C(=O)Nc2ccccc2-c2cn3cccnc3n2)c1 [Compound 504] |  |  | B (B (Fold Activation <250%)) | 5 to 50
COc1cc(C(=O)Nc2cccc(-c3nc4ncccc4o3)c2)ccc1CN1CCCC1 [Compound 506] |  |  | A (A (Fold activation >250%)) | 5 to 50
O=C(Nc1ccccc1-c1nc2ccccc2[nH]1)c1cnc2ccccc2n1 [Compound 508] |  |  | A (A (Fold activation >250%)) | < 5
O=C(Nc1ccccc1-c1cn2c(CN3CCNCC3)csc2n1)c1c[nH]c2ccccc12 [Compound 510] |  |  | A (A (Fold activation >250%)) | < 5
O=C(Nc1ccccc1-c1cn2c(CN3CCNCC3)csc2n1)c1c[nH]nc1-c1ccccc1 [Compound 512] |  |  | A (A (Fold activation >250%)) | < 5
O=C(Nc1ccccc1-c1cn2cc(CN3CCNCC3)sc2n1)c1cnc2ccccc2n1 [Compound 513] |  |  | A (A (Fold activation >250%)) | < 5
O=C(Nc1cccc(-c2nc3nc(CN4CCNCC4)ccc3o2)c1)c1cnc2ccccc2n1 [Compound 514] |  |  | B (B (Fold Activation <250%)) | 5 to 50
COc1ccc(C(=O)Nc2ccc(-c3nc4cnccc4s3)s2)c(OC)c1 [Compound 515] |  |  | B (B (Fold Activation <250%)) | < 5
CN(C)c1cccc(C(=O)Nc2ccc(-c3nc4cnccc4s3)s2)c1 [Compound 518] |  |  | B (B (Fold Activation <250%)) | < 5
CN(C)c1ccc(C(=O)Nc2ccc(-c3nc4cnccc4s3)s2)cc1 [Compound 519] |  |  | B (B (Fold Activation <250%)) | < 5

Further lines, results first:

EC50 (SIRT1 activation) [µM] | FOLD ACT. MS [1] | FOLD ACT. MS [2] | EC50 (Sirt1 activators) [µM] | SMILES
5 to 50 | A (A (Fold activation >250%)) |  |  | COc1cc(C(=O)Nc2cccc(-c3nc4ccncc4o3)c2)cc(OC)c1OC [Compound 430]
< 5 | A (A (Fold activation >250%)) |  |  | COc1ccc(C(=O)Nc2ccccc2-c2cn3cccnc3n2)cc1OC [Compound 438]
< 5 | B (B (Fold Activation <250%)) |  |  | COc1cc(C(=O)Nc2ccccc2-c2cn3cccnc3n2)cc(OC)c1OC [Compound 439]
< 5 | B (B (Fold Activation <250%)) |  |  | COc1ccc(C(=O)Nc2ccccc2-c2nc3ccncc3o2)c(OC)c1 [Compound 455]
< 5 | B (B (Fold Activation <250%)) |  |  | COc1cc(OC)cc(C(=O)Nc2ccccc2-c2nc3ccncc3o2)c1 [Compound 456]
5 to 50 | B (B (Fold Activation <250%)) |  |  | COc1cc(C(=O)Nc2ccccc2-c2nc3ccncc3o2)cc(OC)c1OC [Compound 457]
 |  | A (A (Fold activation >250%)) | < 5 | COc1ccc(C(=O)Nc2ccc(C)cc2-c2nc3ccccc3[nH]2)cc1OC [Compound 507]
 |  | B (B (Fold Activation <250%)) | < 5 | COc1cc(C(=O)Nc2ccc(-c3nc4cnccc4s3)s2)cc(OC)c1OC [Compound 520]
 |  | B (B (Fold Activation <250%)) | < 5 | COc1cc(OC)cc(C(=O)Nc2ccccc2-c2nc3cccnc3[nH]2)c1 [Compound 521]
 |  | A (A (Fold activation >250%)) | 5 to 50 | COc1cc(C(=O)Nc2ccccc2-c2nc3cccnc3[nH]2)cc(OC)c1OC [Compound 522]
 |  | B (B (Fold Activation <250%)) | 5 to 50 | COc1cc(C)ccc1C(=O)Nc1ccccc1-c1nc2cccnc2[nH]1 [Compound 523]
 |  | B (B (Fold Activation <250%)) | < 5 | CN(C)c1cccc(C(=O)Nc2ccccc2-c2nc3cccnc3[nH]2)c1 [Compound 524]
 |  | B (B (Fold Activation <250%)) | < 5 | COc1ccc(C(=O)Nc2ccccc2-c2nc3cccnc3[nH]2)cc1OC [Compound 525]
 |  | A (A (Fold activation >250%)) | < 5 | O=C(Nc1ccccc1-c1nc2cccnc2[nH]1)c1ccc(N2CCOCC2)cc1 [Compound 526]
 |  | B (B (Fold Activation <250%)) | < 5 | O=C(Nc1ccccc1-c1nc2cccnc2[nH]1)c1ccc(N2CCCCC2)cc1 [Compound 527]
 |  | B (B (Fold Activation <250%)) | < 5 | COc1ccc(C(=O)Nc2ccccc2-c2nc3cccnc3[nH]2)cc1C(F)(F)F [Compound 528]
 |  | B (B (Fold Activation <250%)) | < 5 | O=C(Nc1ccccc1-c1nc2cccnc2[nH]1)c1cccc(OC(F)(F)F)c1 [Compound 529]
 |  | B (B (Fold Activation <250%)) | < 5 | COc1cccc(C(=O)Nc2ccccc2-c2nc3cccnc3[nH]2)c1C [Compound 530]
